Data published in ChEMBL document CHEMBL1201862, “PubChem BioAssay data set” (2004).
Calls of active or inactive are those of the source.

How the values were obtained:
cells = assay type: functional, cell-based
[1] = ZM109 Env clade C HIV-1 fusion inhibitors, dose response, HeLa effector, CEM target cells, luciferase, cherry-pick (AID 652058); assay type: functional, cell-based
[2] = inhibitors of clade B AD8 Env fusion, dose response, cell-based, cherry-pick (AID 652062); assay type: functional;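 further: luciferase signal from cell-cell fusion driven by HIV-1 clade B AD8 Env; potency is for inhibitors of fusion seen as a drop in luminescence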
[3] = inhibitors of firefly luciferase expression or activity, dose response, H4 neuroglioma cells, luminescence (AID 1990); assay type: functional, cell-based
[4] = inhibitors of SNCA 5'UTR-driven translation, confirmation, luminescence, H4 neuroglioblastoma cells, dose confirmation (AID 2454); assay type: functional, cell-based;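 further: H4 neuroglioblastoma cells carrying an alpha-synuclein 5'UTR luciferase reporter; potency for inhibition of the luciferase signal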
[5] = Shn3 3'UTR reporter inhibitors, dose response, cell-based, Clone20 osteoblasts, firefly luciferase, cherry-picked (AID 624132); assay type: functional;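 further: firefly luciferase luminescence from reporter carrying the Shn3 3'UTR in osteoblasts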
[6] = biological target: Luciferin 4-monooxygenase (Photuris pensylvanica, UniProt Q27757); test: firefly luciferase enzyme inhibitors, dose response, counter-screen for HSF-1 reporter inhibitor project, biochemical, Cell Titer Glo, luminescence, cherry-picks (AID 588847)
[7] = reduction of Shn3 3'UTR firefly luciferase signal, dose response, Schnurri-3 inhibitor project, cell-based, Clone20 osteoblasts, cherry-pick, set 2 (AID 720490); assay type: functional;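 further: actives lower the luminescence signal as inhibitors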
[8] = LGR2 antagonists, dose response, cell-based, HEK293, CRE-luciferase reporter, cherry pick, set 2 (AID 743343); assay type: functional;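 further: transfected cells were stimulated with diluted bursicon conditioned medium after compound addition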
Jurkat = test: antigen receptor-induced NF-kB inhibitors, dose response, Jurkat, luciferase reporter, luminescence, B- and T-cell (AID 489004); assay type: functional, cell-based; conditions: Homo sapiens;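 further: NF-kB luciferase reporter Jurkat cells stimulated with PMA plus ionomycin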
[9] = off-target signal loss in HeLa-CEM21 co-culture – HeLa F-luc CTL cells, cherry-picked, counter-screen for HIV-1 Env fusion inhibitor project, dose response (AID 652040); assay type: functional, cell-based;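 further: potency for signal decrease marking cytotoxic or nonspecific inhibition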
[10] = biological target: T1, Heat shock factor protein 1 (Mus musculus, UniProt P38532); test: inhibition of MG132-induced HSE-luciferase signal, confirmation, cell-based, NIH3T3, luminescence, dose retest (AID 2382); assay type: functional;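 further: NIH3T3 fibroblasts with HSF1-driven luciferase reporter stressed by proteasome inhibitor MG132; luminescence from HSF1-driven luciferase expression after 8 hours of MG132 stress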
T1 sequence (P38532 whole entry): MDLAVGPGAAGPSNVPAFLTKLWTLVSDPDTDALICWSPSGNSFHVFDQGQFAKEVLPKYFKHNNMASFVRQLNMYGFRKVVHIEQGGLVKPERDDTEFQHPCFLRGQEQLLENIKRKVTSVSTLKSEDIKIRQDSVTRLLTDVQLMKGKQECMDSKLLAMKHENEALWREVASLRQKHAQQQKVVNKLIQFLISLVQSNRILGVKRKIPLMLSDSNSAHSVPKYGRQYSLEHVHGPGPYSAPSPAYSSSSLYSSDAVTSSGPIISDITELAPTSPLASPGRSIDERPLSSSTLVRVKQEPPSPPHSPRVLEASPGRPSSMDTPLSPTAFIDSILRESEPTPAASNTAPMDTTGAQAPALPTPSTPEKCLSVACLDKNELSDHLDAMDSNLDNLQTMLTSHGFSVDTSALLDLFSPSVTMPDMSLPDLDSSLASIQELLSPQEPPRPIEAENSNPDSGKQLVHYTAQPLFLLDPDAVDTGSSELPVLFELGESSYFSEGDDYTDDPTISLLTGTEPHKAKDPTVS

[11] = luciferase reporter signal reduction – luminescence, H4-C neuroglioblastoma cells, dose response (AID 2458); assay type: functional, cell-based;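 further: H4 neuroglioblastoma cells stably carrying a luciferase reporter gene fusion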
[12] = cytotoxicity in HEK-293T NF-kB-Luc cells, dose response, cytotoxicity control for B/T-cell NF-kB inhibitor project, cell-based, uHTS hits (AID 489019); assay type: functional;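 further: IC50 reflects cytotoxicity as loss of cell viability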
[13] = inhibitors of HIV Env-driven cell fusion, dose response, cherry-pick (AID 652057); assay type: functional, cell-based
[14] = inhibitors of control Renilla luciferase reporter, dose response, counter-screen for Shn3 3'UTR targeting project, Clone20-Shn3RL cells, dual-Glo, cherry-pick, set 2 (AID 720724); assay type: functional, cell-based; conditions: Dual-Go Shn3RL
[15] = MC4R antagonists, dose response, counter-screen for LGR2 antagonist project, cell-based, plate reader, cherry pick (AID 743444); assay type: functional;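 further: transfected HEK 293 cells stimulated with alpha-MSH peptide; potency of inhibitors of the alpha-MSH evoked signal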
[16] = inhibitors of SNCA 5'UTR-driven reporter translation, confirmation, H4 neuroglioma cells, luminescence (AID 1988); assay type: functional, cell-based
[17] = Luminescence Cell-Based Dose Response HTS to Identify Inhibitors of 5'UTR Stem-Loop Driven Prion Protein mRNA Translation in H4 Neuroglioblastoma Cells. [Related pubchem assays: 1827 (Project Summary), 1813 (Primary HTS)]; assay type: functional
[18] = biological target: Heat shock protein HSP 90-alpha (Homo sapiens, UniProt P07900); test: Luminescence-based dose response biochemical high throughput screening assay for inhibitors of the Heat Shock Protein 90 (HSP90). [Related pubchem assays: 1831 (Summary AID.), 1846 (Confirmation screen.), 1789 (Primary screen.)]
[19] = biological target: T1, Heat shock factor protein 1; test: HSF1 potentiators in luciferase reporter cells, confirmation, cell-based, NIH3T3, luminescence, dose retest (AID 435004); assay type: functional;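 further: stress induced by proteasome inhibitor MG132 added 30 min after compound; luciferase reporter driven by HSF1 response element in NIH3T3 cells; actives raise luminescence as potentiators of the MG132 stress response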
NS3 = NS3 (Hepatitis C virus, UniProt A3EZJ3); test: PubChem AID 2173; parameters: species or system Hepacivirus hominis
[20] = biological target: Induced myeloid leukemia cell differentiation protein Mcl-1 (Homo sapiens, UniProt Q07820); assay type: functional
[21] = biological target: Mothers against decapentaplegic homolog 3 (Homo sapiens, UniProt P84022); test: Smad3 binding inhibitors, lysate ELISA, dose response, cell lysate, secondary confirmation, chemiluminescent ELISA, HEK293 lysate (AID 1058); assay type: functional
Sequence of Mothers against decapentaplegic homolog 3 (P84022 whole entry): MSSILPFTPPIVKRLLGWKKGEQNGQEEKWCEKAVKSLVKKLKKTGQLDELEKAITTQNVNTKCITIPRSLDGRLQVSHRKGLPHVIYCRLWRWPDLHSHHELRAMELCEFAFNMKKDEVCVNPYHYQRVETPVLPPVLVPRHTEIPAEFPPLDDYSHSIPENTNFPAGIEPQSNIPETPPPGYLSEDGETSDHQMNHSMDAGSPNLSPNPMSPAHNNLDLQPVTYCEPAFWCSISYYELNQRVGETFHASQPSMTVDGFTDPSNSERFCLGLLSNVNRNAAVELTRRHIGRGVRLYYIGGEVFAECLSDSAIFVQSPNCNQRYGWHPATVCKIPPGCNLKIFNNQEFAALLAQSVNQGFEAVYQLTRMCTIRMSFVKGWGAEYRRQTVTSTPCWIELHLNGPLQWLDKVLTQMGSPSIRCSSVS

Sequence of Luciferin 4-monooxygenase (Q27757 whole entry): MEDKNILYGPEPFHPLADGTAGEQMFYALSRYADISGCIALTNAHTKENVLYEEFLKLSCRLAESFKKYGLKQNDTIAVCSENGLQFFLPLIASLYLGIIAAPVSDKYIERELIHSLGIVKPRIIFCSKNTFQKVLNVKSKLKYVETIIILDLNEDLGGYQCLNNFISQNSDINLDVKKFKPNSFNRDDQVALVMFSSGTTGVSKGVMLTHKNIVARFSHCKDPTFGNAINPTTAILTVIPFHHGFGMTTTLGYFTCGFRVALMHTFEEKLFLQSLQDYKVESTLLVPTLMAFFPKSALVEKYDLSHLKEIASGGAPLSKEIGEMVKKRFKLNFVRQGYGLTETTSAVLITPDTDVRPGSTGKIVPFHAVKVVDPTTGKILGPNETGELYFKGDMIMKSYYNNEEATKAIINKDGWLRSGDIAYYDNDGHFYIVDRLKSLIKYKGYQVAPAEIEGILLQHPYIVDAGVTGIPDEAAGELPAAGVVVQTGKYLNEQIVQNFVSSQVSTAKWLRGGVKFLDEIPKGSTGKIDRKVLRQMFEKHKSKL
Sequence of NS3 (A3EZJ3 whole entry): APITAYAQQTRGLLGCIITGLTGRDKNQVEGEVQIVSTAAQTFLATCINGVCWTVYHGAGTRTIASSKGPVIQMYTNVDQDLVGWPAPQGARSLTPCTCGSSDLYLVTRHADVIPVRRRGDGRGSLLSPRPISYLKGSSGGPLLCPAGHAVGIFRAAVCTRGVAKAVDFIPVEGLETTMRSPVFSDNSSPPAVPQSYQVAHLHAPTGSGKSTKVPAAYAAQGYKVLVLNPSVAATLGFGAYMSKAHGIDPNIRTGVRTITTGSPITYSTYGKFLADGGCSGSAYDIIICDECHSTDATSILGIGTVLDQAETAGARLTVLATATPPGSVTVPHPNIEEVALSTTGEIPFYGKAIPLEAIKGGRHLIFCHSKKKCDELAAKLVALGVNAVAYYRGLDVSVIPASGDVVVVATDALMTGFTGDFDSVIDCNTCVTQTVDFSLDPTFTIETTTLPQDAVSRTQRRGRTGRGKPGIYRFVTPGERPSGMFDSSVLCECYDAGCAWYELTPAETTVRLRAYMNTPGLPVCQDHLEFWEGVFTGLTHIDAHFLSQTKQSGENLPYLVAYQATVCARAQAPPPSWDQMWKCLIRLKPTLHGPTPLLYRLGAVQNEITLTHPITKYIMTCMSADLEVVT
Sequence of Induced myeloid leukemia cell differentiation protein Mcl-1 (Q07820 whole entry): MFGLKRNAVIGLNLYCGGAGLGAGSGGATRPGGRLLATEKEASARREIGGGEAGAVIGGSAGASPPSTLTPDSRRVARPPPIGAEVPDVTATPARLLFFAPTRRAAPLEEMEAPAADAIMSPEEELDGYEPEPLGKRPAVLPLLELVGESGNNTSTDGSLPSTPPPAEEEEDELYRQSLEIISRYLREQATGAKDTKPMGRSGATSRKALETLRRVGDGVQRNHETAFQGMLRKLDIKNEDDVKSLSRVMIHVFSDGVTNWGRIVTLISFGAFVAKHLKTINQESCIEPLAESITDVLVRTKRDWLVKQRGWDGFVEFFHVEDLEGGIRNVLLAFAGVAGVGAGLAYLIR

O=C(CN1C(=O)c2ccccc2S1(=O)=O)c1ccc2c(c1)OCCCO2
active: EC50 (cells) 21 nM | AC50 [1] 725 nM | AC50 [2] < 260 nM | EC50 [3] < 100 nM | EC50 [4] 16 nM | AC50 [5] 262 nM | AC50 [7] 631 nM | AC50 [8] < 68 nM | IC50 (Jurkat) < 160 nM | AC50 [9] < 260 nM | EC50 [10] < 160 nM | EC50 [11] 15 nM | AC50 [13] < 260 nM | AC50 [14] 50300 nM | AC50 [15] 69.5 nM | EC50 [16] < 100 nM | EC50 [17] < 100 nM | IC50 [18] 816 nM
inactive: AC50 [6] > 52000 nM | IC50 [12] > 80000 nM

COc1ccc(NC2=NC(=O)/C(=C\C=C\c3ccco3)S2)cc1
25900 nM (not active): IC50 (NS3)
inactive: EC50 [19] > 260000 nM
active: IC50 [20] 3020 nM

O=C(O)c1cc2cc(O)ccc2[nH]1
1770 nM (not active): IC50 [21]
